Measured values from the supplement of paper PMC8671470.

Legend:
Settings in all cases: 72 h
BV-173 = system: BV-173
Procedure, shortened: (§1)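 Each of fifteen myeloid leukaemia cell lines was seeded in RPMI 1640 at a density titrated to its linear growth range. The cells were incubated for 72 h at 37 °C and 5% CO2 with compounds at five tenfold doses from 1 to 10,000 nM, in duplicate. After ATP luminescence was normalised to vehicle and to a positive control at 10 µM, four-parameter log-logistic curves were fitted. These curves gave the IC50.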

HEL = system: HEL
Procedure, shortened: as §1

HL-60 [1] = system: HL-60
Procedure, shortened: as §1

K-562 [2] = system: K-562
Procedure, shortened: as §1

KCL-22 [3] = system: KCL-22
Procedure, shortened: as §1

KG-1 [4] = system: KG-1
Procedure, shortened: as §1

KU-812 [5] = system: KU-812
Procedure, shortened: as §1

LAMA-84 [6] = system: LAMA-84
Procedure, shortened: as §1

ML-2 [7] = system: ML-2
Procedure, shortened: as §1

MOLM-13 [8] = system: MOLM-13
Procedure, shortened: as §1

MV4-11 [9] = system: MV4-11
Procedure, shortened: as §1

Mono-Mac-6 = system: Mono-Mac-6
Procedure, shortened: as §1

NOMO-1 [10] = system: NOMO-1
Procedure, shortened: as §1

SHI-1 [11] = system: SHI-1
Procedure, shortened: as §1

THP-1 [12] = system: THP-1
Procedure, shortened: as §1

HL-60 [13] = experiment: cell viability (% survival relative to DMSO control); higher = less cytotoxic
Procedure, shortened: (§2)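 A rescreen of the full library used HL-60 cells in RPMI 1640 with 10% FBS on 384-well plates, run in duplicate at five tenfold concentrations (1–10,000 nM). Each screen included DMSO or 100 nM of one of three metabolic inhibitors and ran 72 h at 37 °C, 5% CO2. CellTiter-Glo viability was scaled between DMSO and 10 μM proteasome-inhibitor wells. Any area under the curve comes from four-parameter log-logistic fits with drc and PharmacoGx.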

K-562 [14] = experiment: cell viability (% survival relative to DMSO control, bortezomib = 0%); higher = less cytotoxic
Procedure, shortened: (§3)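 After 72 h at 37 °C with 5% CO2, cell viability in 384-well plates was measured by CellTiter-Glo luminescence. The plates held compounds pre-printed at 1, 10, 100, 1000 or 10000 nM in duplicate, and cells from 10 AML and 5 CML lines seeded at densities titrated to linear growth. Percent survival is the duplicate mean, normalised to vehicle as 100% and a 10 µM positive control as 0%.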

KCL-22 [15] = experiment: as above
Procedure, shortened: as §3

KG-1 [16] = experiment: as above
Procedure, shortened: as §3

KU-812 [17] = experiment: as above
Procedure, shortened: as §3

LAMA-84 [18] = experiment: as above
Procedure, shortened: as §3

ML-2 [19] = experiment: as above
Procedure, shortened: as §3

MOLM-13 [20] = experiment: as above
Procedure, shortened: as §3

MV4-11 [21] = experiment: as above
Procedure, shortened: as §3

NOMO-1 [22] = experiment: as above
Procedure, shortened: as §3

SHI-1 [23] = experiment: as above
Procedure, shortened: as §3

THP-1 [24] = experiment: as above
Procedure, shortened: as §3

HL-60 [25] = experiment: area under dose-response curve (viability, 1 nM-10 uM) (fraction (0-1)); higher = more sensitive
Procedure, shortened: as §2

Cl.NC1=CCCN1Cc1nc(O)nc(O)c1Cl [Tipiracil]
Settings	IC50 (cell viability) [µM]
BV-173	> 10
HEL	> 10
HL-60 [1]	> 10
K-562 [2]	> 10
KCL-22 [3]	> 10
KG-1 [4]	> 10
KU-812 [5]	> 10
LAMA-84 [6]	> 10
ML-2 [7]	> 10
MOLM-13 [8]	> 10
MV4-11 [9]	> 10
Mono-Mac-6	> 10
NOMO-1 [10]	> 10
SHI-1 [11]	> 10
THP-1 [12]	> 10

cell viability [%], HL-60 [13]
Settings	0.001 µM	0.01 µM	0.1 µM	1 µM	10 µM
co-treatment: AZD3965 100 nM	98.3	102	99.7	101	99.5
co-treatment: DMSO vehicle	97.2	94.3	102	99.34	100.1
co-treatment: GSK2194069 100 nM	98.7	97.9	97.8	98.6	88
co-treatment: pictilisib 100 nM	93	100	93.7	97	86.7

Settings	area under dose-response curve, co-treatment: AZD3965 100 nM	area under dose-response curve, co-treatment: DMSO vehicle	area under dose-response curve, co-treatment: GSK2194069 100 nM	area under dose-response curve, co-treatment: pictilisib 100 nM	cell viability, 1 nM [%]	cell viability, 10 nM [%]	cell viability, 100 nM [%]	cell viability, 1000 nM [%]	cell viability, 10000 nM [%]
HL-60 [25]	< 0.0301	< 0.0301	< 0.0301	< 0.0301	–	–	–	–	–
K-562 [14]	–	–	–	–	106	99.8	105	115	106
KCL-22 [15]	–	–	–	–	115	90.2	105	114	90.8
KG-1 [16]	–	–	–	–	98.2	95.1	111	107	111
KU-812 [17]	–	–	–	–	101	88.8	104	108	99.7
LAMA-84 [18]	–	–	–	–	115	94.8	98.7	110	102
ML-2 [19]	–	–	–	–	108	92.7	114	105	104
MOLM-13 [20]	–	–	–	–	104	96.3	122	121	93.6
MV4-11 [21]	–	–	–	–	107	105	109	104	106
NOMO-1 [22]	–	–	–	–	106	100	100	100	99.2
SHI-1 [23]	–	–	–	–	107	106	125	113	116
THP-1 [24]	–	–	–	–	102	97.2	102	101	101
